Measurements taken from patent US20140315933A1, “CHEMICAL COMPOUNDS” (Pfizer Limited, priority 2013, published 2014).
Structures can show the parent of a compound that is named as a salt.

What follows are compounds tested against T1, URAT-1 transporter (Homo sapiens, UniProt Q96S37) (assay: URAT-1 inhibitor activity: [14C]-uric acid uptake into CHO-URAT1(L)GFP#8 (CHO#8) cells, scintillation proximity).
T1 construct: expressed in transfected cells
Assay type: cell-based
Outline: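 Scintillation proximity read-out of 30 nM (final) [14C]-uric acid uptake over three hours at room temperature in chloride-free HEPES buffer pH 7.4. Compounds, 0–10 μM final with 0.25% DMSO, were added 15 minutes before substrate; cells were a clonal CHO line with human URAT1(L)-eGFP, preincubated 1 hour in chloride buffer.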

T1 sequence (Q96S37 with tags, fused parts or gaps): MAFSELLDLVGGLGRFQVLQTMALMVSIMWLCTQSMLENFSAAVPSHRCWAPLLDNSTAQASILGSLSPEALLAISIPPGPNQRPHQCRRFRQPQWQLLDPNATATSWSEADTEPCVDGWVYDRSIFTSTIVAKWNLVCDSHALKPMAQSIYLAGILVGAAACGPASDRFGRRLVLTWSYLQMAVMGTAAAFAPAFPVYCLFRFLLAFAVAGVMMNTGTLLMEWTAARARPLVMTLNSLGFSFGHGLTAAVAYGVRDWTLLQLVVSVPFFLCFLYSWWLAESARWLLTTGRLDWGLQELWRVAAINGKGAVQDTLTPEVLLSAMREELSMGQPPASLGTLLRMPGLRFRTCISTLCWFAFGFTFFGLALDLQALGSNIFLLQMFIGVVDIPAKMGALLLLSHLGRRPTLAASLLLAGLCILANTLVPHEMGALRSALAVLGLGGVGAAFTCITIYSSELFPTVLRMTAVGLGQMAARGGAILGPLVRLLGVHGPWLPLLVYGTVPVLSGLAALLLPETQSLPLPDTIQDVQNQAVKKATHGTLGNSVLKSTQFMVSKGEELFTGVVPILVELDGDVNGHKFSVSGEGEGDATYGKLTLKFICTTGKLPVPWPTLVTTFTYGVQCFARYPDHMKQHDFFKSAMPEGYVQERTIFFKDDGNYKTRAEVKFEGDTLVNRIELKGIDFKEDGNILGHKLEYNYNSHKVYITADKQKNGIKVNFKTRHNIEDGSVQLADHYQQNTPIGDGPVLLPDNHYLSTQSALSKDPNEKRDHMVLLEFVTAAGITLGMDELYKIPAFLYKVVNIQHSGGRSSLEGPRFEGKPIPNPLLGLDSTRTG

| SMILES | IC50 |
| --- | --- |
| N#Cc1ccc(Oc2ccc(S(=O)(=O)Nc3ncns3)cc2C#N)cc1 [Example 15, 3-cyano-4-(4-cyanophenoxy)-N-(1,2,4-thiadiazol-5-yl)benzenesulfonamide diethylamine salt] | > 7.37 µM |
| N#Cc1cc(S(=O)(=O)Nc2ncns2)ccc1Oc1cc(Cl)ccc1Cl [Example 55, 3-cyano-4-(2,5-dichlorophenoxy)-N-(1,2,4-thiadiazol-5-yl)benzenesulfonamide] | 0.59 µM |
| N#Cc1ccc(Oc2ccc(S(=O)(=O)Nc3ncns3)cc2Cl)cc1 [Example 64, 3-chloro-4-(4-cyanophenoxy)-N-(1,2,4-thiadiazol-5-yl)benzenesulfonamide diethylamine salt] | 8.01 µM |
| N#Cc1cc(Oc2cc(F)c(S(=O)(=O)Nc3nncs3)cc2F)ccc1F [compound 217] | > 10 µM |
| N#Cc1cc(Oc2cc(F)c(S(=O)(=O)Nc3cscn3)cc2Br)ccc1F [compound 222] | > 3.13 µM |
| CC(C)c1ccc(Oc2ccc(S(=O)(=O)Nc3ncc(F)s3)cc2C#N)cc1 [Example 103, 3-cyano-N-(5-fluoro-1,3-thiazol-2-yl)-4-[4-(propan-2-yl)phenoxy]benzenesulfonamide] | > 6.78 µM |
| COc1cc(Cl)ccc1Oc1ccc(S(=O)(=O)Nc2nncs2)c(OC)c1 [Example 80, 4-(4-chloro-2-methoxyphenoxy)-2-methoxy-N-(1,3,4-thiadiazol-2-yl)benzenesulfonamide] | > 5.78 µM |
| O=S(=O)(Nc1cscn1)c1cc(Cl)c(Oc2ccc(C(F)(F)F)cc2Br)cc1F [Example 161, 4-[2-bromo-4-(trifluoromethyl)phenoxy]-5-chloro-2-fluoro-N-(1,3-thiazol-4-yl)benzenesulfonamide] | > 4.85 µM |
| CC(C)Oc1ccc(F)cc1Oc1cc(F)c(S(=O)(=O)Nc2nncs2)cc1Cl [compound 295] | 0.478 µM |
| N#Cc1cc(S(=O)(=O)Nc2ncns2)ccc1Oc1ccc(F)cc1F [Example 43, 3-cyano-4-(2,4-difluorophenoxy)-N-(1,2,4-thiadiazol-5-yl)benzenesulfonamide] | 0.877 µM |
| Cc1cc(Oc2ccc(S(=O)(=O)Nc3nncs3)cc2C#N)cc(C)c1C#N [Example 337, 3-cyano-4-(4-cyano-3,5-dimethylphenoxy)-N-(1,3,4-thiadiazol-2-yl)benzenesulfonamide] | 0.112 µM |
| CCc1cc(F)ccc1Oc1ccc(S(=O)(=O)Nc2ncns2)cc1I [Example 3, 4-(2-ethyl-4-fluorophenoxy)-3-iodo-N-(1,2,4-thiadiazol-5-yl)benzenesulfonamide] | 0.069 µM |
| N#Cc1cc(Oc2ccc(S(=O)(=O)Nc3cscn3)cc2I)ccc1F [compound 240] | 0.577 µM |
| N#Cc1cc(S(=O)(=O)Nc2ncns2)ccc1Oc1c(F)cccc1Cl [compound 251] | 1.32 µM |
| CCc1cccc(Oc2ccc(S(=O)(=O)Nc3ncc(F)s3)cc2C#N)c1 [Example 99, 3-cyano-4-(3-ethylphenoxy)-N-(5-fluoro-1,3-thiazol-2-yl)benzenesulfonamide] | 1.63 µM |
| COc1cccc(Oc2cc(F)c(S(=O)(=O)Nc3nncs3)cc2Cl)c1 [compound 306] | 2.41 µM |
| N#Cc1cc(S(=O)(=O)Nc2ncns2)ccc1Oc1ccc(F)cc1Cl [Example 46, 4-(2-chloro-4-fluorophenoxy)-3-cyano-N-(1,2,4-thiadiazol-5-yl)benzenesulfonamide] | 0.504 µM |
| CC(C)c1cc(C#N)cc(Oc2ccc(S(=O)(=O)Nc3nccs3)cc2C#N)c1 [compound 174] | 0.237 µM |
| N#Cc1cc(Oc2ccc(S(=O)(=O)Nc3ncc(F)s3)cc2C#N)ccc1F [Example 245, 3-cyano-4-(3-cyano-4-fluorophenoxy)-N-(5-fluoro-1,3-thiazol-2-yl)benzenesulfonamide] | 2 µM |
| Cc1c(Oc2ccc(S(=O)(=O)Nc3ncc(F)s3)cc2C#N)ccc(F)c1F [Example 128, 3-cyano-4-(3,4-difluoro-2-(methylphenoxy)-N-5-fluoro-1,3-thiazol-2-yl)benzenesulfonamide] | 1.19 µM |

| SMILES | IC50 |
| --- | --- |
| COc1ccc(Oc2ccc(S(=O)(=O)Nc3nccs3)cc2C#N)cn1 [compound 173] | > 3.66 µM |
| N#Cc1cc(S(=O)(=O)Nc2ncc(Cl)s2)ccc1Oc1cccc(C(F)(F)F)c1 [Example 89, N-(5-chloro-1,3-thiazol-2-yl)-3-cyano-4-[3-(trifluoromethyl)phenoxy]benzenesulfonamide] | 2.83 µM |
| [2H]C([2H])([2H])Oc1cc(Cl)ccc1Oc1ccc(S(=O)(=O)Nc2ncns2)cc1C#N [Example 57] | 0.517 µM |
| Cc1ccccc1Oc1ccc(S(=O)(=O)Nc2ncc(F)s2)cc1C#N [Example 112, 3-cyano-N-(5-fluoro-1,3-thiazol-2-yl)-4-(2-methylphenoxy)benzenesulfonamide] | 4.03 µM |
| N#Cc1cc(S(=O)(=O)Nc2ncns2)ccc1Oc1ccc(C(F)(F)F)nc1 [Example 21, 3-cyano-N-(1,2,4-thiadiazol-5-yl)-4-{[6-(trifluoromethyl)pyridin-3-yl]oxy}benzenesulfonamide] | > 10 µM |
| COc1ccc(F)cc1Oc1ccc(S(=O)(=O)Nc2ncns2)cc1C#N [compound 277] | > 5.43 µM |
| CC(C)(C)c1cccc(Oc2ccc(S(=O)(=O)Nc3ncc(F)s3)cc2C#N)c1 [Example 137, 4-(3-tert-butylphenoxy)-3-cyano-N-(5-fluoro-1,3-thiazol-2-yl)benzenesulfonamide] | > 8.95 µM |
| N#Cc1cc(S(=O)(=O)Nc2nccs2)ccc1Oc1ccccc1F [compound 183] | > 6.03 µM |
| N#Cc1cc(S(=O)(=O)Nc2nccs2)ccc1Oc1ccccc1CCO [compound 176] | > 6 µM |
| N#Cc1cc(S(=O)(=O)Nc2nccs2)ccc1Oc1cccc(CCO)c1 [compound 175] | > 5.44 µM |
| Cc1cc(F)ccc1Oc1ccc(S(=O)(=O)Nc2ncns2)cc1C#N [Example 39, 3-cyano-4-(4-fluoro-2-methylphenoxy)-N-(1,2,4-thiadiazol-5-yl)benzenesulfonamide] | 0.994 µM |
| N#Cc1ccc(Oc2ccc(S(=O)(=O)Nc3nccs3)cc2F)cc1Cl [compound 232] | 0.513 µM |
| COc1ccc(F)c(Oc2ccc(S(=O)(=O)Nc3ncns3)cc2C#N)c1 [compound 287] | 1.44 µM |
| N#Cc1cc(Oc2c(F)cc(S(=O)(=O)Nc3ncns3)cc2F)ccc1F [compound 205] | > 6.81 µM |
| COc1cc(F)ccc1Oc1cc(F)c(S(=O)(=O)Nc2nncs2)cc1Cl [compound 312] | > 6.45 µM |
| N#Cc1cc(S(=O)(=O)Nc2ncc(F)s2)ccc1Oc1ccc(C#N)c(C(F)(F)F)c1 [Example 140, 3-cyano-4-[4-cyano-3-(trifluoromethyl)phenoxy]-N-(5-fluoro-1,3-thiazol-2-yl)benzenesulfonamide] | > 7.3 µM |
| Cn1ccc(NS(=O)(=O)c2ccc(Oc3ccc(C#N)c(Cl)c3)c(C#N)c2)n1 [Example 4, 4-(3-chloro-4-cyanophenoxy)-3-cyano-N-(1-methyl-1H-pyrazol-3-yl)benzenesulfonamide diethylamine salt] | 3.36 µM |
| COc1ccc(Oc2cc(F)c(S(=O)(=O)Nc3nncs3)cc2Cl)cc1F [compound 324] | 3.28 µM |
| N#Cc1cc(S(=O)(=O)Nc2ncns2)ccc1Oc1cccc(C(F)(F)F)c1 [Example 54, 3-cyano-N-(1,2,4-thiadiazol-5-yl)-4-[3-(trifluoromethyl)phenoxy]benzene sulfonamide] | 2.85 µM |
